What was measured:
[1] = target: T1, Tyrosyl-DNA phosphodiesterase 1 (TDP1) (Homo sapiens, UniProt Q9NUW8); assay: real-time fluorimetric assay with FAM/BHQ1 oligonucleotide; V(S) kinetics; EMSA and fluorescence anisotropy show no DNA competition; type: biochemical
T1 construct: TDP1 wild type (full-length, recombinant from E. coli, pLate31-TDP1)

[2] = target: T2, Δ148TDP1 (Homo sapiens, UniProt Q9NUW8); assay: real-time fluorimetric assay with FAM/BHQ1 oligonucleotide; type: biochemical
T2 construct: gene TDP1; Δ148TDP1, truncated form lacking the first 148 N-terminal amino acid residues (recombinant from E. coli)

[3] = target: TDP1 (wild type) (Homo sapiens, UniProt Q9NUW8 1-608); assay: EMSA; no inhibitor; 0.5 uM TDP1, 0.1 uM DNA; two complexes (1:1 and 2:1); 50 mM Tris-HCl pH 8.0, 50 mM NaCl, 7 mM beta-mercaptoethanol; EMSA 10 min at 4 C, 5% PAGE in 0.3x TBE; anisotropy temperature not stated; conditions: protein: recombinant; label: 5'-(5,6)-FAM; single strand
TDP1 (wild type), sequence (Q9NUW8 whole entry): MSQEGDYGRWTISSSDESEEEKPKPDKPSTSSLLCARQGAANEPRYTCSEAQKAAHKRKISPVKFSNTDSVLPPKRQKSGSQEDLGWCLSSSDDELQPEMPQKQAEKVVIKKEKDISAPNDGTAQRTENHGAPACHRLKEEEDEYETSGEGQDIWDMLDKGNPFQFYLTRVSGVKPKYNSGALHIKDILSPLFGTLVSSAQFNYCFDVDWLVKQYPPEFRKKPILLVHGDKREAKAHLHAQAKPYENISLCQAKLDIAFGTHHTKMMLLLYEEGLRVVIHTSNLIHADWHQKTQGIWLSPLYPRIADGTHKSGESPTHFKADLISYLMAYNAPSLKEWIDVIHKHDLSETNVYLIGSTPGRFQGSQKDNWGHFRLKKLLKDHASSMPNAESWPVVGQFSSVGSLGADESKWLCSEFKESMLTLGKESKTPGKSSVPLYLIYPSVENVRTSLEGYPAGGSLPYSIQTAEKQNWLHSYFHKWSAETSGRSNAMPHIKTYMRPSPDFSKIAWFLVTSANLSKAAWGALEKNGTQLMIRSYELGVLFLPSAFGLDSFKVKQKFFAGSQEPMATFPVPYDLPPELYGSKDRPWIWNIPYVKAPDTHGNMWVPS

T2 sequence (Q9NUW8 149-608, stated change not applied): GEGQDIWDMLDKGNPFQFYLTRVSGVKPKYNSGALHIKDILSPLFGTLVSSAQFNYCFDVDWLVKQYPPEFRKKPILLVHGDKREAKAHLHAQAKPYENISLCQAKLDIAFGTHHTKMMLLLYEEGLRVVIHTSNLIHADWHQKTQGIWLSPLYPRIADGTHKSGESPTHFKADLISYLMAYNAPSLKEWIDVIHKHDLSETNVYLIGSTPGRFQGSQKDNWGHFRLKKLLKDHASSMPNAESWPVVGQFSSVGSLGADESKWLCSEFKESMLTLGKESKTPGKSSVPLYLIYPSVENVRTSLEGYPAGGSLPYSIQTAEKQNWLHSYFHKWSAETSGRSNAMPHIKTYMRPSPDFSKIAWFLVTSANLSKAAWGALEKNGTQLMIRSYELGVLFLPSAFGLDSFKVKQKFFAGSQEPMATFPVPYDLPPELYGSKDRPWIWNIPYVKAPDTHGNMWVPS
T1 sequence (Q9NUW8 whole entry): as the sequence (Q9NUW8 whole entry) above

Molecule	IC50 [1]	IC50 [2]	binding result [3]
CC(=O)c1c(O)c(C)c(O)c2c1OC1=CC(=O)C(=C(C)NCCCc3cc(C(C)(C)C)c(O)c(C(C)(C)C)c3)C(=O)C12C (stereo not drawn) [OL9-116]	1.4 ± 0.4 µM	3.8 ± 0.8 µM	
AACGTCAGGGTCTTCC (ssDNA) [5'-FAM 16-mer oligonucleotide]			binds

From paper PMC13114712, “The Influence of TDP1 Inhibitor Usnic Acid Derivative OL9-116 on the Effects of Topotecan in Human Cells” (Current Issues in Molecular Biology, 2026)
